Experimental data as given in article PMC11667666, “Light-Driven Hybrid Nanoreactor Harnessing the Synergy of Carboxysomes and Organic Frameworks for Efficient Hydrogen Production” (ACS Catalysis, 2024).

Biological target: T1, recombinant α-carboxysome shell (Halothiobacillus neapolitanus, UniProt P45688+P45689+P45690)
T1 construct: gene csoS1A; whole self-assembled multi-paralog shell (about 90 nm) from pBAD-cso-2 in E. coli; CsoS1 hexamers, CsoS4 pentamers, CsoS2 linker; with Carboxysome shell vertex protein CsoS4A; Carboxysome shell vertex protein CsoS4B; Carboxysome assembly protein CsoS2
T1 sequence (O85044 whole entry): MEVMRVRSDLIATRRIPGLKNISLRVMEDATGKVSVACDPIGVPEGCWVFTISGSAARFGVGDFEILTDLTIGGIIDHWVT
T1 sequence (P45688 whole entry): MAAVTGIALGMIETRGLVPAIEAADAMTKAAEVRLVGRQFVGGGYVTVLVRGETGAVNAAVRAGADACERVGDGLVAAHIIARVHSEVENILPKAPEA
T1 sequence (O85041 whole entry, further chain): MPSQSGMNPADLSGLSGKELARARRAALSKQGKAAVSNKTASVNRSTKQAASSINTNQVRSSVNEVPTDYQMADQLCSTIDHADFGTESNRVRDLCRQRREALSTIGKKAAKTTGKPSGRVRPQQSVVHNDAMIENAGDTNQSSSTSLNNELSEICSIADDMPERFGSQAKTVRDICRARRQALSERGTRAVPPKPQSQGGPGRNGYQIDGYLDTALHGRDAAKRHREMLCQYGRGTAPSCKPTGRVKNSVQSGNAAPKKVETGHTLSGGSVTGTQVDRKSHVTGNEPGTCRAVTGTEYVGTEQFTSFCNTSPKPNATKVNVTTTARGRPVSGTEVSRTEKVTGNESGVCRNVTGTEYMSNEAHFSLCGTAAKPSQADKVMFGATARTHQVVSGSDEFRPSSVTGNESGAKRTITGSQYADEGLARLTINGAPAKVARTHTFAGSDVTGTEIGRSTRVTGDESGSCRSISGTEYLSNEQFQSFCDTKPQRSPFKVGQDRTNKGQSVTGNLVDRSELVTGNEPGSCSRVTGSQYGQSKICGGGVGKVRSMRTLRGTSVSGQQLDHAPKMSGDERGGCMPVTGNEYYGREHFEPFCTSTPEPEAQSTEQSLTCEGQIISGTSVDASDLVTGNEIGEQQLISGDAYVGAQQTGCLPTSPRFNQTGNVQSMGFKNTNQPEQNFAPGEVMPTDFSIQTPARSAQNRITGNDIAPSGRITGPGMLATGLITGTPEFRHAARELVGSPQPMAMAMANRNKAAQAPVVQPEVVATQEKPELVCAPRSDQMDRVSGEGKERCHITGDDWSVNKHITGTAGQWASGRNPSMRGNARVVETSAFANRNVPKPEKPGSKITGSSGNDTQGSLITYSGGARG
T1 sequence (O85043 whole entry, further chain): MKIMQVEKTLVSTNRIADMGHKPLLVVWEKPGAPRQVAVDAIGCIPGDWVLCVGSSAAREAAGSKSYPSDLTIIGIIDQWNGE
T1 sequence (P45689 2-98): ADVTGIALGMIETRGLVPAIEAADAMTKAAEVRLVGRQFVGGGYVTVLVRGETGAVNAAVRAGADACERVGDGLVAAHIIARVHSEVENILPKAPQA
T1 sequence (P45690 whole entry): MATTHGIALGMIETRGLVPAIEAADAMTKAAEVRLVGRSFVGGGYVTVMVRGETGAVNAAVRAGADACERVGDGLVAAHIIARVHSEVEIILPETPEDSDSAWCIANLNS
Test: isothermal titration calorimetry
Assay type: binding
Details: TBAP (50 μM) titrated into whole shell (3.75 μM); 20 mM Tris-HCl pH 8.0, 150 mM NaCl; multi-protein particle, site not resolved by ITC

Structure (SMILES): O=C(O)c1ccc(-c2cc(-c3ccc(C(=O)O)cc3)c3ccc4c(-c5ccc(C(=O)O)cc5)cc(-c5ccc(C(=O)O)cc5)c5ccc2c3c54)cc1 [TBAP, 1,3,6,8-tetra(4′-carboxyphenyl)pyrene]
- Kd: 524 nM
